From PubChem BioAssay AID248 (DTP/NCI, 2004)
Where “and” joins values, the source holds several entries; their conditions need not be identical. Equal entries are not always repeated. Inconclusive results and toxic doses are left out. Cut-off read from the data, not from the text of the source: active = T/C of 150% or more; inactive = T/C below 125%.

Test system: L1210 leukemia ip in BDF1 mice, survival T/C
Assay: NCI In Vivo Anticancer Drug Screen. Data for tumor model L1210 Leukemia (intraperitoneal) in B6D2F1 (BDF1) mice
Details: endpoint: mean survival time, higher = longer survival
Method: The antitumor activity of compounds was measured in mice bearing transplantable tumors. Survival or tumor size were measured and the results are expressed as the measurement made in the treated group (T) divided by the measurement made in the vehicle treated control group (C). The tumor model used in this assay is L1210 Leukemia (intraperitoneal) in B6D2F1 (BDF1) mice

[1] = dose: 100.0 mg/kg/injection, schedule: Q04DX003 (ip), vehicle: saline with Tween-80
[2] = dose: 200.0 mg/kg/injection, schedule: Q04DX003 (ip), vehicle: saline with Tween-80
[3] = dose: 400.0 mg/kg/injection, schedule: Q04DX003 (ip), vehicle: saline with Tween-80
[4] = dose: 100.0 mg/kg/injection, schedule: Q01DX001 (ip), vehicle: carboxymethylcellulose (CMC)
[5] = dose: 200.0 mg/kg/injection, schedule: Q01DX001 (ip), vehicle: carboxymethylcellulose (CMC)
[6] = dose: 400.0 mg/kg/injection, schedule: Q01DX001 (ip), vehicle: carboxymethylcellulose (CMC)
[7] = dose: 100.0 mg/kg/injection, schedule: Q04DX002 (ip), vehicle: Klucel (hydroxypropylcellulose) (HPC)
[8] = dose: 200.0 mg/kg/injection, schedule: Q04DX002 (ip), vehicle: Klucel (hydroxypropylcellulose) (HPC)
[9] = dose: 100.0 mg/kg/injection, schedule: Q04DX003 (ip), vehicle: Klucel (hydroxypropylcellulose) (HPC)
[10] = dose: 200.0 mg/kg/injection, schedule: Q04DX003 (ip), vehicle: Klucel (hydroxypropylcellulose) (HPC)
[11] = dose: 400.0 mg/kg/injection, schedule: Q04DX003 (ip), vehicle: Klucel (hydroxypropylcellulose) (HPC)
[12] = dose: 12.5 mg/kg/injection, schedule: Q01DX009 (ip), vehicle: saline with Tween-80
[13] = dose: 100.0 mg/kg/injection, schedule: Q01DX009 (ip), vehicle: saline with Tween-80
[14] = dose: 100.0 mg/kg/injection, schedule: Q01DX001 (ip), vehicle: saline
[15] = dose: 200.0 mg/kg/injection, schedule: Q01DX001 (ip), vehicle: saline
[16] = dose: 400.0 mg/kg/injection, schedule: Q01DX001 (ip), vehicle: saline
[17] = dose: 100.0 mg/kg/injection, schedule: Q01DX009 (ip), vehicle: saline
[18] = dose: 100.0 mg/kg/injection, schedule: Q04DX003 (ip), vehicle: saline
[19] = dose: 200.0 mg/kg/injection, schedule: Q04DX003 (ip), vehicle: saline
[20] = dose: 400.0 mg/kg/injection, schedule: Q04DX003 (ip), vehicle: saline

Measured: T/C

CC(C)=C(c1ccc(Cl)cc1)c1c(Cl)ncnc1Cl
inactive: [1] 101 % of control | [2] 102 % of control | [3] 104 % of control

O=C1c2ccccc2C(Br)(c2ccccc2)C1Br (centres undefined)
inactive: dose: 12.5 mg/kg/injection, schedule: Q01DX009 (ip), vehicle: other 93 % of control | dose: 25.0 mg/kg/injection, schedule: Q01DX009 (ip), vehicle: other 89 % of control

O=C1OCC(C(=O)c2ccccc2)C1=Nc1ccccc1O (centres undefined)
inactive: dose: 50.0 mg/kg/injection, schedule: Q01DX001 (ip), vehicle: carboxymethylcellulose (CMC) 94 % of control | [4] 100 % of control | [5] 100 % of control | [6] 92 % of control

Cc1cc(N(C)c2ccccc2)nc(N)n1
inactive: dose: 25.0 mg/kg/injection, schedule: Q01DX Z (ip), vehicle: methylcellulose (MC) 96 % of control

O=P(NC12CC3CC(CC(C3)C1)C2)(OCc1ccccc1)OCc1ccccc1
inactive: dose: 75.0 mg/kg/injection, schedule: Q01DX009 (ip), vehicle: Klucel (hydroxypropylcellulose) (HPC) 97 % of control | dose: 150.0 mg/kg/injection, schedule: Q01DX009 (ip), vehicle: Klucel (hydroxypropylcellulose) (HPC) 90 % of control | dose: 300.0 mg/kg/injection, schedule: Q01DX009 (ip), vehicle: Klucel (hydroxypropylcellulose) (HPC) 95 % of control

O=Cc1c(Cl)n(-c2ccccc2)c2ccccc12
inactive: dose: 50.0 mg/kg/injection, schedule: Q04DX002 (ip), vehicle: Klucel (hydroxypropylcellulose) (HPC) 97 % of control | [7] 97 % of control | [8] 87 % of control

COc1cc(N(CCl)CCl)ccc1NC(=O)c1ccccc1
inactive: [9] 111 % of control | [10] 105 % of control | [11] 111 % of control

ClCCN(CCCl)CCCN1c2ccccc2Sc2ccccc21
inactive: dose: 6.25 mg/kg/injection, schedule: Q01DX009 (ip), vehicle: saline with Tween-80 109 % of control | [12] 115 % of control | dose: 12.5 mg/kg/injection, schedule: Q04DX003 (ip), vehicle: saline with Tween-80 97 % of control | dose: 16.0 mg/kg/injection, schedule: Q04DX003 (ip), vehicle: saline with Tween-80 114 % of control | dose: 16.0 mg/kg/injection, schedule: Q04DX003 (ip), vehicle: saline 100 % of control | dose: 25.0 mg/kg/injection, schedule: Q04DX003 (ip), vehicle: saline with Tween-80 97 % of control | dose: 26.0 mg/kg/injection, schedule: Q04DX003 (ip), vehicle: saline 107 % of control | dose: 35.0 mg/kg/injection, schedule: Q04DX003 (ip), vehicle: saline with Tween-80 90 % of control | dose: 35.0 mg/kg/injection, schedule: Q04DX003 (ip), vehicle: saline 103 % of control | dose: 50.0 mg/kg/injection, schedule: Q04DX003 (ip), vehicle: saline with Tween-80 121 % of control

S=C(Nc1ccccc1)Nc1ccc(Cl)c(Cl)c1
inactive: [12] 95 % of control | dose: 25.0 mg/kg/injection, schedule: Q01DX009 (ip), vehicle: saline with Tween-80 92 % of control and 90 % of control | dose: 50.0 mg/kg/injection, schedule: Q01DX009 (ip), vehicle: saline with Tween-80 105 % of control | [13] 87 % of control and 91 % of control

C=CCN1C2C=C(c3ccccc3)CC1CCC2 (centres undefined)
inactive: dose: 12.5 mg/kg/injection, schedule: Q04DX003 (ip), vehicle: Klucel (hydroxypropylcellulose) (HPC) 100 % of control | dose: 25.0 mg/kg/injection, schedule: Q04DX003 (ip), vehicle: Klucel (hydroxypropylcellulose) (HPC) 96 % of control

O=C(Nc1ccc(F)cc1)C(Cl)(Cl)Cl
inactive: [7] 102 % of control | [8] 94 % of control | dose: 400.0 mg/kg/injection, schedule: Q04DX002 (ip), vehicle: Klucel (hydroxypropylcellulose) (HPC) 94 % of control

Cc1ccc(/C(=C/c2ccc([N+](=O)[O-])cc2)C(=O)Nc2ccc(S(=O)(=O)F)cc2)cc1
inactive: [13] 94 % of control | dose: 200.0 mg/kg/injection, schedule: Q01DX009 (ip), vehicle: saline with Tween-80 89 % of control | dose: 400.0 mg/kg/injection, schedule: Q01DX009 (ip), vehicle: saline with Tween-80 86 % of control

COC(=O)C(CCSC)NC(=O)C(C)NC(=O)c1cnc2ccccc2n1 (centres undefined)
inactive: [4] 91 % of control | [5] 94 % of control | [6] 98 % of control

CSCSCC(NC(=O)c1ccccc1)C(=O)O (centres undefined)
inactive: [14] 104 % of control | dose: 150.0 mg/kg/injection, schedule: Q04DX003 (ip), vehicle: saline 90 % of control | [15] 104 % of control | dose: 300.0 mg/kg/injection, schedule: Q04DX003 (ip), vehicle: saline 87 % of control | [16] 98 % of control | dose: 600.0 mg/kg/injection, schedule: Q04DX003 (ip), vehicle: saline 92 % of control

CN(C)C=Nc1ccc(C#N)cc1
inactive: dose: 100.0 mg/kg/injection, schedule: Q04DX002 (ip), vehicle: saline 98 % of control | dose: 200.0 mg/kg/injection, schedule: Q04DX002 (ip), vehicle: saline 91 % of control | dose: 400.0 mg/kg/injection, schedule: Q04DX002 (ip), vehicle: saline 91 % of control

CCCCCCCCNc1ccccc1
inactive: [1] 95 % of control | [2] 106 % of control | [3] 117 % of control

CC(=O)OC1CCCC23CC(CC12)C(C)(C)C3Br (centres undefined)
inactive: dose: 100.0 mg/kg/injection, schedule: Q01DX009 (ip), vehicle: Klucel (hydroxypropylcellulose) (HPC) 95 % of control | [9] 97 % of control | dose: 200.0 mg/kg/injection, schedule: Q01DX009 (ip), vehicle: Klucel (hydroxypropylcellulose) (HPC) 100 % of control | [10] 93 % of control | dose: 400.0 mg/kg/injection, schedule: Q01DX009 (ip), vehicle: Klucel (hydroxypropylcellulose) (HPC) 97 % of control | [11] 95 % of control

CCNS(=O)(=O)c1cccc(C(N)=S)c1
inactive: dose: 100.0 mg/kg/injection, schedule: Q01DX001 (ip), vehicle: gum acacia 103 % of control | dose: 200.0 mg/kg/injection, schedule: Q01DX001 (ip), vehicle: gum acacia 105 % of control | dose: 400.0 mg/kg/injection, schedule: Q01DX001 (ip), vehicle: gum acacia 106 % of control

ClC/C=[CH]/[Sn]([c]1ccccc1)([c]1ccccc1)[c]1ccccc1
inactive: dose: 50.0 mg/kg/injection, schedule: Q01DX009 (ip), vehicle: saline 112 % of control | [17] 116 % of control

CC1CCC2C(=CC(=O)CC2(C)C)C1 (centres undefined)
inactive: [14] 109 % of control | [18] 108 % of control | [15] 101 % of control | [19] 104 % of control | [16] 96 % of control | [20] 103 % of control

CC(=O)CCN1CCCCC1
inactive: dose: 20.0 mg/kg/injection, schedule: Q04DX003 (ip), vehicle: saline 124 % of control

C/C(=C/c1c(C)[nH]c(=O)[nH]c1=O)C(=O)O
inactive: [17] 92 % of control | [18] 98 % of control | dose: 200.0 mg/kg/injection, schedule: Q01DX009 (ip), vehicle: saline 95 % of control | [19] 104 % of control | [20] 106 % of control
